Target: ROCK2 (Homo sapiens, UniProt O75116)
Assay: ROCK assay: phosphorylation of FITC peptide substrate, LABCHIP 3000 mobility shift
Assay type: biochemical
Conditions: 5 μM ATP, 1.5 μM peptide substrate; read-out: ROCK2 Activity (ROCK IC50 range)
Summary of the method: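 Rho kinase variant phosphorylates 1.5 μM FITC-AHA-AKRRRLSSLRA-OH with 5 μM ATP in 20 mM HEPES pH 7.5, 20 mM MgCl2, 0.015% Brij-35, 4 mM DTT, DMSO <2%. EDTA stops the reaction, and phospho and non-phospho peptides are resolved by LabChip 3000 mobility shift. IC50 from dose-response curve fit.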

Chain of ROCK2 (O75116 whole entry, species assumed): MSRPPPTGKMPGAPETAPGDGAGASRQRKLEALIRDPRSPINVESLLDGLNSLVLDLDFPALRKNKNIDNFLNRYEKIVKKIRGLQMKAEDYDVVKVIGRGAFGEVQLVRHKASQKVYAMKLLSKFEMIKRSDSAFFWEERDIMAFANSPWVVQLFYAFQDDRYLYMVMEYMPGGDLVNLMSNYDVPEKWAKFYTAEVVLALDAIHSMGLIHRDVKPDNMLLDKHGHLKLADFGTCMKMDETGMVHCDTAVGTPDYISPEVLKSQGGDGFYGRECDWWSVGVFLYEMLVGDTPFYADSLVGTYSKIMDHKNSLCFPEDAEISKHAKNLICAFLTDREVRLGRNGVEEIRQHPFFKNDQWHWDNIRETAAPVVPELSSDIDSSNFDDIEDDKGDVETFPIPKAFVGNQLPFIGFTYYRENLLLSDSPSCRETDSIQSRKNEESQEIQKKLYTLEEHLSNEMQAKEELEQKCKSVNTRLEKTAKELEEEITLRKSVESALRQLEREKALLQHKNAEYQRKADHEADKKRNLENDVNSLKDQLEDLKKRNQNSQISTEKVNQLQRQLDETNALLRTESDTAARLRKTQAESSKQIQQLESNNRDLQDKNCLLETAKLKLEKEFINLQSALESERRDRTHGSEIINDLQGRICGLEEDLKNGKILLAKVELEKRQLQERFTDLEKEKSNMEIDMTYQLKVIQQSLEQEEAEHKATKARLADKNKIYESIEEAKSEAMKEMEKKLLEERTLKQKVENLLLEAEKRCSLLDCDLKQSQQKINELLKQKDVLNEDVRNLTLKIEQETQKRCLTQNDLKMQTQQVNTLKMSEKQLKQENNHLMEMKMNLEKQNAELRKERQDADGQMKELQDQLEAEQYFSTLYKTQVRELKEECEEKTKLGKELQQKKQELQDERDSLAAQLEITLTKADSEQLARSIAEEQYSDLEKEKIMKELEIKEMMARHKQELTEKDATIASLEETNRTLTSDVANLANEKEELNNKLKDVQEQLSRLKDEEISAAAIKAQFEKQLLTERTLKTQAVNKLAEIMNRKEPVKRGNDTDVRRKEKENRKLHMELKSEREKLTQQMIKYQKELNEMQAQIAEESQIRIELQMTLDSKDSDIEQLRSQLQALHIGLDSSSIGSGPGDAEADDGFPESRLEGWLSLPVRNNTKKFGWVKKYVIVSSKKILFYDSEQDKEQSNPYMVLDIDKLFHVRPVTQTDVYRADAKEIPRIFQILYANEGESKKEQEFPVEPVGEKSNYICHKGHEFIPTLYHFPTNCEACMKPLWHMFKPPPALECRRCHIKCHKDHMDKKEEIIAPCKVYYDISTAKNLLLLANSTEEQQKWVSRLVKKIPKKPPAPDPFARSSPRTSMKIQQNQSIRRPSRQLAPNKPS

Structure (SMILES)	IC50 [nM]
Cc1nn(C)c(C)c1-c1ccc2c(C(=O)NC3CC4(C3)CC(c3n[nH]c(=O)c5ccccc35)C4)cnn2c1 [Example 221, N-((aR)-6-(4-oxo-3,4-dihydrophthalazin-1-yl)spiro[3.3]heptan-2-yl)-6-(1,3,5-trimethyl-1H-pyrazol-4-yl)pyrazolo[1,5-a]pyridine-3-carboxamide]	0.2 to 2
O=C(NC1CC2(C1)CC(c1n[nH]c(=O)c3ccccc13)C2)c1cnn2cc(-c3cnn(C4CCOCC4)c3)ccc12 [Example 222, N-((aR)-6-(4-oxo-3,4-dihydrophthalazin-1-yl)spiro[3.3]heptan-2-yl)-6-(1-(tetrahydro-2H-pyran-4-yl)-1H-pyrazol-4-yl)pyrazolo[1,5-a]pyridine-3-carboxamide]	0.2 to 2
Cn1cc(-c2ccc3c(C(=O)NC4CC5(C4)CC(c4n[nH]c(=O)c6ccccc46)C5)cnn3c2)c(C(F)(F)F)n1 [Example 223, 6-(1-methyl-3-(trifluoromethyl)-1H-pyrazol-4-yl)-N-((aR)-6-(4-oxo-3,4-dihydrophthalazin-1-yl)spiro[3.3]heptan-2-yl)pyrazolo[1,5-a]pyridine-3-carboxamide]	0.2 to 2
CC(C)n1cc(-c2ccc3c(C(=O)NC4CC5(C4)CC(c4n[nH]c(=O)c6ccccc46)C5)cnn3c2)c(C(F)(F)F)n1 [Example 224, 6-(1-isopropyl-3-(trifluoromethyl)-1H-pyrazol-4-yl)-N-((aR)-6-(4-oxo-3,4-dihydrophthalazin-1-yl)spiro[3.3]heptan-2-yl)pyrazolo[1,5-a]pyridine-3-carboxamide]	0.2 to 2
CC(C)(C)n1cc(-c2ccc3c(C(=O)NC4CC5(C4)CC(c4n[nH]c(=O)c6ccccc46)C5)cnn3c2)cn1 [Example 225, 6-(1-(tert-butyl)-1H-pyrazol-4-yl)-N-((aR)-6-(4-oxo-3,4-dihydrophthalazin-1-yl)spiro[3.3]heptan-2-yl)pyrazolo[1,5-a]pyridine-3-carboxamide]	0.2 to 2
O=C(NC1CC2(C1)CC(c1n[nH]c(=O)c3ccccc13)C2)c1cnn2cc(-c3cnn(C4CCOC4)c3)ccc12 [Example 226, N-((aR)-6-(4-oxo-3,4-dihydrophthalazin-1-yl)spiro[3.3]heptan-2-yl)-6-(1-(tetrahydrofuran-3-yl)-1H-pyrazol-4-yl)pyrazolo[1,5-a]pyridine-3-carboxamide]	0.2 to 2
O=C(Nc1ccc(Br)cc1)N[C@H]1CC2(C1)C[C@H](c1n[nH]c(=O)c3ccccc31)C2 (stereo partly drawn) [Example 227, 1-(4-bromophenyl)-3-((aR)-6-(4-oxo-3,4-dihydrophthalazin-1-yl)spiro[3.3]heptan-2-yl)urea]	15.1 to 100
Cn1cc(-c2ccc(NC(=O)NC3CC4(C3)CC(c3n[nH]c(=O)c5ccccc35)C4)cc2)cn1 [Example 228, 1-(4-(1-methyl-1H-pyrazol-4-yl)phenyl)-3-((aR)-6-(4-oxo-3,4-dihydrophthalazin-1-yl)spiro[3.3]heptan-2-yl)urea]	5.1 to 15
[2H]C([2H])([2H])n1cc(-c2ccc(NC(=O)NC3CC4(C3)CC(c3n[nH]c(=O)c5ccccc35)C4)cc2)cn1 [Example 229, 1-(4-(1-(^2H3)methyl-1H-pyrazol-4-yl)phenyl)-3-((aR)-6-(4-oxo-3,4-dihydrophthalazin-1-yl)spiro[3.3]heptan-2-yl)urea]	5.1 to 15
O=C(Nc1ccc(-c2cnn(C3CC3)c2)cc1)NC1CC2(C1)CC(c1n[nH]c(=O)c3ccccc13)C2 [Example 230, 1-(4-(1-cyclopropyl-1H-pyrazol-4-yl)phenyl)-3-((aR)-6-(4-oxo-3,4-dihydrophthalazin-1-yl)spiro[3.3]heptan-2-yl)urea]	15.1 to 100
O=C(Nc1ccc(-c2cnn(C3CCOCC3)c2)cc1)NC1CC2(C1)CC(c1n[nH]c(=O)c3ccccc13)C2 [Example 231, 1-((aR)-6-(4-oxo-3,4-dihydrophthalazin-1-yl)spiro[3.3]heptan-2-yl)-3-(4-(1-(tetrahydro-2H-pyran-4-yl)-1H-pyrazol-4-yl)phenyl)urea]	15.1 to 100
Cn1cc(-c2ccc(NC(=O)NC3CC4(C3)CC(c3n[nH]c(=O)c5ccccc35)C4)cc2)c(C(F)(F)F)n1 [Example 232, 1-(4-(1-methyl-3-(trifluoromethyl)-1H-pyrazol-4-yl)phenyl)-3-((aR)-6-(4-oxo-3,4-dihydrophthalazin-1-yl)spiro[3.3]heptan-2-yl)urea]	5.1 to 15
Cc1nn(C)c(C)c1-c1ccc(NC(=O)NC2CC3(C2)CC(c2n[nH]c(=O)c4ccccc24)C3)cc1 [Example 233, 1-((aR)-6-(4-oxo-3,4-dihydrophthalazin-1-yl)spiro[3.3]heptan-2-yl)-3-(4-(1,3,5-trimethyl-1H-pyrazol-4-yl)phenyl)urea]	5.1 to 15
O=C(N[C@H]1CC2(C1)C[C@H](c1n[nH]c(=O)c3ccccc31)C2)N1CCc2cc(Br)ccc21 (stereo partly drawn) [Example 234, 5-Bromo-N-((aR)-6-(4-oxo-3,4-dihydrophthalazin-1-yl)spiro[3.3]heptan-2-yl)indoline-1-carboxamide]	2.01 to 5
Cn1cc(-c2ccc3c(c2)CCN3C(=O)NC2CC3(C2)CC(c2n[nH]c(=O)c4ccccc24)C3)cn1 [Example 235, 5-(1-methyl-1H-pyrazol-4-yl)-N-((aR)-6-(4-oxo-3,4-dihydrophthalazin-1-yl)spiro[3.3]heptan-2-yl)indoline-1-carboxamide]	0.2 to 2
O=C(NC1CC2(C1)CC(c1n[nH]c(=O)c3ccccc13)C2)N1CCc2cc(-c3cnn(C4CC4)c3)ccc21 [Example 236, 5-(1-cyclopropyl-1H-pyrazol-4-yl)-N-((aR)-6-(4-oxo-3,4-dihydrophthalazin-1-yl)spiro[3.3]heptan-2-yl)indoline-1-carboxamide]	0.2 to 2
Cc1nn(C)c(C)c1-c1ccc2c(c1)CCN2C(=O)NC1CC2(C1)CC(c1n[nH]c(=O)c3ccccc13)C2 [Example 237, N-((aR)-6-(4-oxo-3,4-dihydrophthalazin-1-yl)spiro[3.3]heptan-2-yl)-5-(1,3,5-trimethyl-1H-pyrazol-4-yl)indoline-1-carboxamide]	2.01 to 5
Cn1cc(-c2ccc3c(c2)CCN3C(=O)NC2CC3(C2)CC(c2n[nH]c(=O)c4ccccc24)C3)c(C(F)(F)F)n1 [Example 238, 5-(1-methyl-3-(trifluoromethyl)-1H-pyrazol-4-yl)-N-((aR)-6-(4-oxo-3,4-dihydrophthalazin-1-yl)spiro[3.3]heptan-2-yl)indoline-1-carboxamide]	2.01 to 5
[2H]C([2H])([2H])n1cc(-c2ccc3c(c2)CCN3C(=O)NC2CC3(C2)CC(c2n[nH]c(=O)c4ccccc24)C3)cn1 [Example 239, 5-(1-(^2H3)methyl-1H-pyrazol-4-yl)-N-((aR)-6-(4-oxo-3,4-dihydrophthalazin-1-yl)spiro[3.3]heptan-2 yl)indoline-1-carboxamide]	0.2 to 2
O=C(NC1CC2(C1)CC(c1n[nH]c(=O)c3ccccc13)C2)N1CCc2cc(-c3cnn(C4CCOCC4)c3)ccc21 [Example 240, N-((aR)-6-(4-oxo-3,4-dihydrophthalazin-1-yl)spiro[3.3]heptan-2-yl)-5-(1-(tetrahydro-2H-pyran-4-yl)-1H-pyrazol-4-yl)indoline-1-carboxamide]	2.01 to 5
O=C(NC1CC2(C1)CC(c1n[nH]c(=O)c3ccccc13)C2)N1CCc2cc(-c3cnn(CC4CC4)c3)ccc21 [Example 241, 5-(1-(cyclopropylmethyl)-1H-pyrazol-4-yl)-N-((aR)-6-(4-oxo-3,4-dihydrophthalazin-1-yl)spiro[3.3]heptan-2-yl)indoline-1-carboxamide]	2.01 to 5

Source: patent US9902702B2, “Spirocycloheptanes as inhibitors of rock” (BRISTOL-MYERS SQUIBB COMPANY, priority 2014, dated 2018)
